# Laboratory results reported in US20210009950A1, “ANGIOGENESIS-INDUCING METHOD USING NEURAL STEM CELL” (MEDINNO INC., priority 2018, published 2021).
# Key:
# Groα = format: cell-based, human
# MCP-1 = format: cell-based, human
smiles,measurement,setting,value
[Cl-].[Cl-].[Co+2] [CoCl2],amount of Groα at 24 hours after CoCl2 treatment,Groα,increased in a concentration-dependent manner
same,amount of Groα at CoCl2 200 μM or more compared to 100 μM,Groα,reduced
same,"amount of Groα, another 24 hours after medium replaced with DMEM/F12",Groα,highest when 100 μM CoCl2 was treated
same,expression of Gro,Groα,increased
same,CoCl2 concentration giving highest Groα at 24 hours after treatment,Groα; 24 hours,500 µM
same,amount of MCP-1 at 24 hours after CoCl2 treatment,MCP-1,increased in proportion to the concentration
same,amount of MCP-1 at CoCl2 300 μM or more compared to 100 and 200 μM,MCP-1,reduced
same,"expression level of MCP-1, another 24 hours after medium replaced with DMEM/F12",MCP-1,highest in the case of treatment of 100 μM CoCl2
same,expression of MCP-1,MCP-1,increased
